Patent publication US20030195350A1, “Individualization of therapy with antiviral agents” (priority 2001, published 2003)
pEC50: −log10 of the molar value. Like-named read-outs stand apart in the source and are kept apart here.

Columns and labels:
[1] = co-administration with ritonavir; cited from earlier work
HIV isolates = conditions: cited from earlier work; for decrease in susceptibility in vitro: HIV isolates from individuals during ritonavir therapy vs matched baseline isolates
HIV = conditions: cited from earlier work
HIV-1 = conditions: cited from earlier work
[2] = cited from earlier work; for AUC (mean±SD): single 600 mg dose, non-fasting
[3] = in vivo; cited from earlier work
[4] = in vivo; cited from earlier work; remark: listed apart in the source
[5] = cited from earlier work
AAMU-Ab = experiment: Competitive antigen ELISA, cross-reactivity of AAMU-Ab; type: binding, rabbit; conditions: 0 = absence of inhibition or inhibition no higher than 40% at 5 × 10^−3 M
Protocol: (§1) Buffers and water without additives are filtered through millipore filters and kept for 1 week. BSA, antibodies, Tween™ 20 and horse radish peroxidase conjugates are added to these buffers and water just prior to use. Urine samples are usually collected 4 hours after drinking a cup of coffee (instant or brewed with approximately 100 mg of caffeine per cup) and stored at −80° C. The urine samples are diluted 10 times with sodium phosphate buffer (620 mosm, pH 7.50) and are subsequently diluted with water to give concentrations of AAMU and 1X no higher than 3×10^−6 M in the ELISA. All the pipettings are done with an eight-channel pipette, except those of the antibody and sample solutions. Starting with the last well, 100 μL of a carbonate buffer (100 mM, pH 9.6) containing 2.5 μg mL^−1 antibodies are added to each well. After 90 min. at room temperature, the wells are washed three times with […] of TPB: isotonic sodium phosphate buffer (310 mosm, pH 7.50) containing 0.05% Tween™ 20.
(§2) After the initial wash, unoccupied sites are blocked by incubation for 90 min. at room temperature with 100 μL TBP containing 3% BSA. The wells are washed four times with 100 μL TPB. […] The microplate is gently shaken with an orbital shaker at room temperature for 3-4 hours. The wells are washed three times with 100 μL TPB containing 1% BSA and three times with water containing 0.05% Tween™ 20. To the washed plate is added 150 μL of a substrate buffer composed of citric acid (25 mM) and sodium phosphate dibasic buffer (50 mM, pH 5.0) containing 0.06% hydrogen peroxide and 0.04% o-phenylenediamine hydrochloride.
(§3) Buffers and water without additives were filtered through millipore filters and kept for 1 week. BSA, antibodies, Tween™ 20 and horse radish peroxidase conjugates were added to these buffers and water just prior to use. Urine samples were usually collected 4 hours after drinking a cup of coffee (instant or brewed with approximately 100 mg of caffeine per cup) and stored at −80° C. They were diluted 10 times with sodium phosphate buffer (620 mosm, pH 7.50) and were subsequently diluted with water to give concentrations of AAMU and 1X no higher than 3×10^−6 M in the ELISA. All the pipettings were done with an eight-channel pipette, except those of the antibody and sample solutions. Starting with the last well, 100 μL of a carbonate buffer (100 mM, pH 9.6) containing 2.5 μg mL^−1 antibodies was pipetted. After 90 min. at room temperature, the wells were washed three times with 100 μL of TPB: isotonic sodium phosphate buffer (310 mosm, pH 7.50) containing 0.05% Tween™ 20.
(§4) After the initial wash, unoccupied sites were blocked by incubation for 90 min. at room temperature with 100 μL TBP containing 3% BSA. The wells were washed four times with 100 μL TPB. […] The microplate was gently shaken with an orbital shaker at room temperature for 3-4 hours. The wells were washed three times with 100 μL with TPB containing 1% BSA and three times with water containing 0.05% Tween™ 20. To the washed plate was added 150 μL of a substrate buffer composed of citric acid (25 mM) and sodium phosphate dibasic buffer (50 mM, pH 5.0) containing 0.06% hydrogen peroxide and 0.04% o-phenylenediamine hydrochloride. After 20 min. at room temperature with shaking, the reaction was stopped with 50 μL of 2.5 N HCl.
(§5) The cross reactivities of AAMU-Ab and 1X-Ab were tested using a wide variety of caffeine metabolites and structural analogs (Table 3 below).

1X-Ab = experiment: Competitive antigen ELISA, cross-reactivity of 1X-Ab; type: binding, rabbit; conditions: 0 = absence of inhibition or inhibition no higher than 40% at 5 × 10^−3 M
Protocol: as §1, §2, §3, §4, §5

CCOC(=O)C1(c2ccccc2)CCN(C)CC1 [Meperidine]
Effect (on drug concentration) [1]: down meperidine

CC(=O)N1CCN(c2ccc(OCC3COC(Cn4ccnc4)(c4ccc(Cl)cc4Cl)O3)cc2)CC1 (stereo not shown) [Ketoconazole]
Effect (on drug concentration) [1]: up ketoconazole

CCOC(=O)C1(c2ccccc2)CCNCC1 [normeperidine]
Effect (on drug concentration) [1]: up normeperidine

CC(C)CN(C[C@@H](O)[C@H](Cc1ccccc1)NC(=O)O[C@H]1CCOC1)S(=O)(=O)c1ccc(N)cc1 [amprenavir]
decrease in susceptibility in vitro (HIV isolates): none

CC(C)c1nc(CN(C)C(=O)N[C@H](C(=O)N[C@@H](Cc2ccccc2)C[C@H](O)[C@H](Cc2ccccc2)NC(=O)OCc2cncs2)C(C)C)cs1 (relative stereo) [ritonavir, 10-Hydroxy-2-methyl-5-(1-methylethyl)-1-[2-(1-methylethyl)-4-thiazolyl]-3,6-dioxo-8,11-bis(phenylmethyl)-2,4,7,12-tetraazatridecan-13-oic acid, 5-thiazolylmethyl ester, [5S-(5R*,8R*,10R*,11R*)]]
susceptibility of ZDV-resistant HIV isolate (HIV isolates; one ZDV-resistant HIV isolate in vitro): retained full susceptibility
cumulative incidence of clinical disease progression or death (HIV; double-blind phase of Study 247, 600 mg b.i.d.): 26%
cumulative mortality (HIV; through end of open-label follow-up phase, Study 247): 18%
effect against HIV-1 in combination (HIV-1; MT 4 cells, with either zidovudine (ZDV) or didanosine (ddI)): additive effects
pEC50 (HIV-1; read-out: average EC50, low passage clinical isolates (n=13)): 7.66
steady-state oral clearance (CL/F/m^2), pediatric vs adult ([2]; HIV-infected individuals ages 2 to 14 years): approximately 1.5 times
dose excreted in the feces ([2]; in vivo, po): 86.4±2.9 % of the dose
dose excreted in the feces as unchanged parent drug ([2]; in vivo, po): 33.8±10.8 % of the dose
dose excreted into the urine ([2]; in vivo, po): 11.3±2.8 % of the dose
dose excreted into the urine as unchanged parent drug ([2]; in vivo, po): 3.5±1.8 % of the dose
effect of dilution of oral solution on extent and rate of absorption ([2]; in vivo, po): did not significantly affect
renal clearance ([2]; in vivo): negligible
AUC (mean±SD) ([2]; oral solution (n=18)): 129.0 ± 39.3 µg·h/mL
AUC (mean±SD) ([2]; soft gelatin capsule (n=57)): 121.7 ± 53.8 µg·h/mL
Adverse event: Depression [3]: 1.7%
Adverse event: Diarrhea [3]: 15.4%
Adverse event: Fecal Incontinence [3]: 0.0%
Adverse event: Vasodilation [3]: 1.7%
Adverse event: Depression [4]: 1.7%
Adverse event: Fecal Incontinence [4]: 0.0%
Adverse event: Vasodilation [4]: 1.7%

COc1ccc2c(c1)[C@]13CCCC[C@@H]1[C@H](C2)N(C)CC3 [Dextromethorphan]
mean performance+/−SE ([5]; EMs (extensive metabolizers)): 95+/−0.5%
mean performance+/−SE ([5]; PMs (poor metabolizers)): 86+/−6%

CC(C)(C)NC(=O)[C@@H]1CN(Cc2cccnc2)CCN1C[C@@H](O)C[C@@H](Cc1ccccc1)C(=O)N[C@H]1c2ccccc2C[C@H]1O [Indinavir, indinavir]
decrease in susceptibility in vitro (HIV isolates): 8 fold

CC(C)(C)NC(=O)[C@@H]1C[C@@H]2CCCC[C@@H]2CN1C[C@@H](O)[C@H](Cc1ccccc1)NC(=O)[C@H](CC(N)=O)NC(=O)c1ccc2ccccc2n1 [Saquinavir, saquinavir]
decrease in susceptibility in vitro (HIV isolates): did not demonstrate a concordant decrease in susceptibility

CCC(=O)C(CC(C)N(C)C)(c1ccccc1)c1ccccc1 (stereo not shown) [Methadone]
Effect (on drug concentration) [1]: down methadone

CC(C)[C@H](NC(=O)N(C)Cc1csc(C(C)(C)O)n1)C(=O)N[C@@H](Cc1ccccc1)C[C@H](O)[C@H](Cc1ccccc1)NC(=O)OCc1cncs1 [Compound M-2]
concentrations of metabolite in plasma ([2]; in vivo): low

Cn1c(=O)c2[nH]cnc2n(C)c1=O [1,3-Dimethyl Xanthine (Theophylline), 1,3-Dimethyl Xanthine]
% Cross-Reaction AAMU-Ab (AAMU-Ab): 0%
% Cross-Reaction 1X-Ab (1X-Ab): 0.2%
Effect (on drug concentration) [1]: down theophylline
